Values joined by “and” are separate entries in the source; they are usually repeats but may differ in a detail not shown here. Identical values can stand only once. Toxic doses and inconclusive results are not listed.
Tested on: L1210 leukemia ip in BDF1 mice, survival T/C
Assay: NCI In Vivo Anticancer Drug Screen. Data for tumor model L1210 Leukemia (intraperitoneal) in B6D2F1 (BDF1) mice
Details: higher = longer survival
Procedure, shortened: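 Mice bearing the transplanted tumor received compound or vehicle. Survival of the treated group was divided by that of the vehicle-treated control group to give the ratio.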

[1] = endpoint: mean survival time, dose: 50.0 mg/kg/injection, schedule: Q01DX001 (ip), vehicle: Klucel (hydroxypropylcellulose) (HPC)
[2] = endpoint: mean survival time, dose: 100.0 mg/kg/injection, schedule: Q01DX001 (ip), vehicle: Klucel (hydroxypropylcellulose) (HPC)

SMILES: COc1cc([C@@H]2c3cc4c(cc3[C@@H](OC3OC5COC(C)OC5C(O)C3O)[C@H]3COC(=O)[C@H]23)OCO4)cc(OC)c1O (some centres not stated)
- T/C (endpoint: mean survival time, dose: 1.8 mg/kg/injection, schedule: Q03HX016 (ip), vehicle: saline): 292 % of control
- T/C (endpoint: mean survival time, dose: 1.8 mg/kg/injection, schedule: Q03HX024 (ip), vehicle: saline): 315 % of control
- T/C (endpoint: mean survival time, dose: 2.0 mg/kg/injection, schedule: Q01DX009 (ip), vehicle: Klucel (hydroxypropylcellulose) (HPC)): 161 % of control and 172 % of control
- T/C (endpoint: mean survival time, dose: 2.7 mg/kg/injection, schedule: Q03HX016 (ip), vehicle: saline): 510 % of control
- T/C (endpoint: mean survival time, dose: 2.7 mg/kg/injection, schedule: Q03HX024 (ip), vehicle: saline): 600 % of control
- T/C (endpoint: mean survival time, dose: 4.0 mg/kg/injection, schedule: Q01DX001 (sc), vehicle: Klucel (hydroxypropylcellulose) (HPC)): 97 % of control
- T/C (endpoint: mean survival time, dose: 4.0 mg/kg/injection, schedule: Q01DX001 (sc), vehicle: clinical formulation): 102 % of control
- T/C (endpoint: mean survival time, dose: 4.0 mg/kg/injection, schedule: Q01DX009 (ip), vehicle: Klucel (hydroxypropylcellulose) (HPC)): 104 % of control and 196 % of control and 266 % of control
- T/C (endpoint: mean survival time, dose: 4.0 mg/kg/injection, schedule: Q01DX009 (sc), vehicle: clinical formulation): 183 % of control
- T/C (endpoint: mean survival time, dose: 4.0 mg/kg/injection, schedule: Q03HX016 (ip), vehicle: saline): 409 % of control
- T/C (endpoint: mean survival time, dose: 4.0 mg/kg/injection, schedule: Q03HX016 (oral), vehicle: Klucel (hydroxypropylcellulose) (HPC)): 105 % of control
- T/C (endpoint: mean survival time, dose: 4.0 mg/kg/injection, schedule: Q03HX024 (ip), vehicle: saline): 568 % of control
- T/C (endpoint: mean survival time, dose: 4.5 mg/kg/injection, schedule: Q03HX024 (ip), vehicle: saline): 409 % of control
- T/C (endpoint: mean survival time, dose: 6.0 mg/kg/injection, schedule: Q03HX016 (ip), vehicle: saline): 154 % of control
- T/C (endpoint: mean survival time, dose: 8.0 mg/kg/injection, schedule: Q01DX001 (sc), vehicle: Klucel (hydroxypropylcellulose) (HPC)): 103 % of control
- T/C (endpoint: mean survival time, dose: 8.0 mg/kg/injection, schedule: Q01DX001 (sc), vehicle: clinical formulation): 106 % of control
- T/C (endpoint: mean survival time, dose: 8.0 mg/kg/injection, schedule: Q01DX009 (sc), vehicle: clinical formulation): 180 % of control
- T/C (endpoint: mean survival time, dose: 8.0 mg/kg/injection, schedule: Q03HX016 (oral), vehicle: Klucel (hydroxypropylcellulose) (HPC)): 105 % of control
- T/C (endpoint: mean survival time, dose: 8.0 mg/kg/injection, schedule: Q04DX003 (ip), vehicle: Klucel (hydroxypropylcellulose) (HPC)): 225 % of control
- T/C (endpoint: mean survival time, dose: 12.0 mg/kg/injection, schedule: Q03DX003 (ip), vehicle: saline): 319 % of control
- T/C (endpoint: mean survival time, dose: 12.0 mg/kg/injection, schedule: Q04DX003 (ip), vehicle: saline): 213 % of control
- T/C (endpoint: mean survival time, dose: 16.0 mg/kg/injection, schedule: Q01DX001 (sc), vehicle: Klucel (hydroxypropylcellulose) (HPC)): 106 % of control
- T/C (endpoint: mean survival time, dose: 16.0 mg/kg/injection, schedule: Q01DX001 (sc), vehicle: clinical formulation): 117 % of control
- T/C (endpoint: mean survival time, dose: 16.0 mg/kg/injection, schedule: Q01DX009 (sc), vehicle: Klucel (hydroxypropylcellulose) (HPC)): 208 % of control
- T/C (endpoint: mean survival time, dose: 16.0 mg/kg/injection, schedule: Q01DX009 (sc), vehicle: clinical formulation): 187 % of control
- T/C (endpoint: mean survival time, dose: 16.0 mg/kg/injection, schedule: Q03HX016 (oral), vehicle: Klucel (hydroxypropylcellulose) (HPC)): 105 % of control
- T/C (endpoint: mean survival time, dose: 16.0 mg/kg/injection, schedule: Q08DX002 (ip), vehicle: Klucel (hydroxypropylcellulose) (HPC)): 157 % of control
- T/C (endpoint: mean survival time, dose: 18.0 mg/kg/injection, schedule: Q03DX003 (ip), vehicle: saline): 395 % of control
- T/C (endpoint: mean survival time, dose: 18.0 mg/kg/injection, schedule: Q04DX003 (ip), vehicle: saline): 372 % of control
- T/C (endpoint: mean survival time, dose: 27.0 mg/kg/injection, schedule: Q03DX003 (ip), vehicle: saline): 552 % of control
- T/C (endpoint: mean survival time, dose: 27.0 mg/kg/injection, schedule: Q04DX003 (ip), vehicle: saline): 506 % of control
- T/C (endpoint: mean survival time, dose: 32.0 mg/kg/injection, schedule: Q01DX001 (sc), vehicle: Klucel (hydroxypropylcellulose) (HPC)): 115 % of control
- T/C (endpoint: mean survival time, dose: 32.0 mg/kg/injection, schedule: Q01DX009 (oral), vehicle: Klucel (hydroxypropylcellulose) (HPC)): 109 % of control
- T/C (endpoint: mean survival time, dose: 32.0 mg/kg/injection, schedule: Q03HX016 (oral), vehicle: Klucel (hydroxypropylcellulose) (HPC)): 119 % of control
- T/C (endpoint: mean survival time, dose: 32.0 mg/kg/injection, schedule: Q04DX003 (oral), vehicle: Klucel (hydroxypropylcellulose) (HPC)): 109 % of control
- T/C (endpoint: mean survival time, dose: 32.0 mg/kg/injection, schedule: Q08DX002 (ip), vehicle: Klucel (hydroxypropylcellulose) (HPC)): 338 % of control
- T/C (endpoint: mean survival time, dose: 40.0 mg/kg/injection, schedule: Q03DX003 (ip), vehicle: saline): 562 % of control
- T/C (endpoint: mean survival time, dose: 40.0 mg/kg/injection, schedule: Q04DX003 (ip), vehicle: saline): 584 % of control
- T/C [1]: 276 % of control
- T/C (endpoint: mean survival time, dose: 50.0 mg/kg/injection, schedule: Q01DX001 (ip), vehicle: saline): 116 % of control
- T/C (endpoint: mean survival time, dose: 60.0 mg/kg/injection, schedule: Q03DX003 (ip), vehicle: saline): 86 % of control
- T/C (endpoint: mean survival time, dose: 64.0 mg/kg/injection, schedule: Q01DX001 (oral), vehicle: Klucel (hydroxypropylcellulose) (HPC)): 103 % of control
- T/C (endpoint: mean survival time, dose: 64.0 mg/kg/injection, schedule: Q01DX001 (sc), vehicle: clinical formulation): 120 % of control
- T/C (endpoint: mean survival time, dose: 64.0 mg/kg/injection, schedule: Q03HX016 (oral), vehicle: Klucel (hydroxypropylcellulose) (HPC)): 108 % of control
- T/C (endpoint: mean survival time, dose: 64.0 mg/kg/injection, schedule: Q04DX003 (oral), vehicle: Klucel (hydroxypropylcellulose) (HPC)): 123 % of control
- T/C (endpoint: mean survival time, dose: 64.0 mg/kg/injection, schedule: Q08DX002 (ip), vehicle: Klucel (hydroxypropylcellulose) (HPC)): 417 % of control
- T/C [2]: 448 % of control
- T/C (endpoint: mean survival time, dose: 100.0 mg/kg/injection, schedule: Q01DX001 (ip), vehicle: saline): 176 % of control
- T/C (endpoint: mean survival time, dose: 128.0 mg/kg/injection, schedule: Q01DX001 (oral), vehicle: Klucel (hydroxypropylcellulose) (HPC)): 104 % of control and 106 % of control
- T/C (endpoint: mean survival time, dose: 128.0 mg/kg/injection, schedule: Q01DX001 (oral), vehicle: clinical formulation): 109 % of control
- T/C (endpoint: mean survival time, dose: 128.0 mg/kg/injection, schedule: Q03HX016 (oral), vehicle: Klucel (hydroxypropylcellulose) (HPC)): 118 % of control
- T/C (endpoint: mean survival time, dose: 128.0 mg/kg/injection, schedule: Q08DX002 (ip), vehicle: Klucel (hydroxypropylcellulose) (HPC)): 119 % of control
- T/C (endpoint: mean survival time, dose: 256.0 mg/kg/injection, schedule: Q01DX001 (oral), vehicle: Klucel (hydroxypropylcellulose) (HPC)): 104 % of control and 110 % of control
- T/C (endpoint: mean survival time, dose: 256.0 mg/kg/injection, schedule: Q01DX001 (oral), vehicle: clinical formulation): 106 % of control
- T/C (endpoint: mean survival time, dose: 256.0 mg/kg/injection, schedule: Q01DX001 (sc), vehicle: Klucel (hydroxypropylcellulose) (HPC)): 166 % of control
- T/C (endpoint: mean survival time, dose: 256.0 mg/kg/injection, schedule: Q01DX001 (sc), vehicle: clinical formulation): 188 % of control
- T/C (endpoint: mean survival time, dose: 256.0 mg/kg/injection, schedule: Q01DX009 (oral), vehicle: Klucel (hydroxypropylcellulose) (HPC)): 103 % of control
- T/C (endpoint: mean survival time, dose: 512.0 mg/kg/injection, schedule: Q01DX001 (oral), vehicle: Klucel (hydroxypropylcellulose) (HPC)): 106 % of control and 118 % of control
- T/C (endpoint: mean survival time, dose: 512.0 mg/kg/injection, schedule: Q01DX001 (oral), vehicle: clinical formulation): 165 % of control
- T/C (endpoint: mean survival time, dose: 512.0 mg/kg/injection, schedule: Q01DX009 (oral), vehicle: Klucel (hydroxypropylcellulose) (HPC)): 91 % of control
- T/C (endpoint: mean survival time, dose: 1024.0 mg/kg/injection, schedule: Q01DX001 (oral), vehicle: Klucel (hydroxypropylcellulose) (HPC)): 111 % of control
- T/C (endpoint: median survival time, dose: 2.0 mg/kg/injection, schedule: Q01DX009 (ip), vehicle: saline): 172 % of control
- T/C (endpoint: median survival time, dose: 2.0 mg/kg/injection, schedule: Q01DX009 (sc), vehicle: Klucel (hydroxypropylcellulose) (HPC)): 121 % of control
- T/C (endpoint: median survival time, dose: 4.0 mg/kg/injection, schedule: Q01DX009 (ip), vehicle: saline): 188 % of control
- T/C (endpoint: median survival time, dose: 8.0 mg/kg/injection, schedule: Q01DX009 (ip), vehicle: saline): 611 % of control
- T/C (endpoint: median survival time, dose: 8.0 mg/kg/injection, schedule: Q01DX009 (sc), vehicle: Klucel (hydroxypropylcellulose) (HPC)): 168 % of control
- T/C (endpoint: median survival time, dose: 16.0 mg/kg/injection, schedule: Q01DX009 (sc), vehicle: Klucel (hydroxypropylcellulose) (HPC)): 110 % of control
- T/C (endpoint: median survival time, dose: 32.0 mg/kg/injection, schedule: Q01DX009 (sc), vehicle: Klucel (hydroxypropylcellulose) (HPC)): 89 % of control

SMILES: CNS(=O)(=O)CCC(N)C(=O)O (configuration not stated)
- T/C (endpoint: mean survival time, dose: 100.0 mg/kg/injection, schedule: Q04DX003 (ip), vehicle: saline with Tween-80): 97 % of control
- T/C (endpoint: mean survival time, dose: 200.0 mg/kg/injection, schedule: Q04DX003 (ip), vehicle: saline with Tween-80): 103 % of control
- T/C (endpoint: mean survival time, dose: 400.0 mg/kg/injection, schedule: Q04DX003 (ip), vehicle: saline with Tween-80): 97 % of control

SMILES: CCCCCCCCCCCCOc1cccc(OCCCCCCCCCCCC)c1
- T/C [2]: 92 % of control
- T/C (endpoint: mean survival time, dose: 200.0 mg/kg/injection, schedule: Q01DX001 (ip), vehicle: Klucel (hydroxypropylcellulose) (HPC)): 87 % of control
- T/C (endpoint: mean survival time, dose: 400.0 mg/kg/injection, schedule: Q01DX001 (ip), vehicle: Klucel (hydroxypropylcellulose) (HPC)): 87 % of control

SMILES: COc1ccc(OC)c(NC(=O)CI)c1
- T/C (endpoint: mean survival time, dose: 25.0 mg/kg/injection, schedule: Q01DX001 (ip), vehicle: Klucel (hydroxypropylcellulose) (HPC)): 103 % of control
- T/C [1]: 104 % of control
- T/C [2]: 98 % of control

From PubChem BioAssay AID248 (DTP/NCI, 2004)
